Data published in patent publication US7462600B2, “Macrolides” (Pfizer Inc, priority 2004, dated 2008).
Values after ≈ are worked out from the molar mass of the structure shown.

Assays:
Type in all cases: cell-based
[1] = tested on: Haemophilus influenzae 1218; assay: MIC, microtiter broth dilution (NCCLS M100-S14), H. influenzae 1218 (susceptible); settings: Haemophilus influenzae 1218
Method in brief: (§1)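 Broth dilution was run in microtiter trays and read per NCCLS M100-S14 to give MICs. Compounds came from 40 mg/ml DMSO stock solutions. The strain panel paired macrolide-susceptible parents with macrolide-resistant derivatives.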

[2] = tested on: Streptococcus pneumoniae 1095; settings: Streptococcus pneumoniae 1095; microtiter broth dilution
Method in brief: as §1

[3] = tested on: Streptococcus pneumoniae 1175; settings: Streptococcus pneumoniae 1175; microtiter broth dilution
Method in brief: as §1

[4] = tested on: Streptococcus pyogenes 1079; assay: MIC, microtiter broth dilution (NCCLS M100-S14), S. pyogenes 1079 (ermB); settings: Streptococcus pyogenes 1079
Method in brief: as §1

[5] = tested on: Streptococcus pneumoniae 1016; assay: MIC, microtiter broth dilution (NCCLS M100-S14), S. pneumoniae 1016 (susceptible); settings: Streptococcus pneumoniae 1016
Method in brief: as §1

CCC1OC(=O)C(C)C(=O)C(C)C(OC2OC(C)CC(N(C)C)C2O)C(C)(OC)CC(C)C(=O)C(C)C2N(C3CN(S(=O)(=O)c4ccc5oc(=O)[nH]c5c4)C3)C(=O)OC12C (stereo not shown) [Example 3.22, 3-descladinosyl-11,12-dideoxy-6-O-methyl-3-oxo-12,11-(oxycarbonyl-(1-(2,3-dihydro-2-oxobenzo[d]oxazole-5-sulfonyl)-azetidin-3-yl)-imino)-erythromycin A]
MIC H. influenzae 1218 [1]: 0.25 µg/mL (≈ 0.289 µM)
MIC S. pneumo. 1095 [2]: 4 µg/mL (≈ 4.62 µM)
MIC S. pneumo. 1175 [3]: 0.5 µg/mL (≈ 0.578 µM)
MIC S. pyogenes 1079 [4]: 1 µg/mL (≈ 1.16 µM)
MIC S. pneumo. 1016 [5]: <0.06 µg/mL

CCC1OC(=O)C(C)C(=O)C(C)C(OC2OC(C)CC(N(C)C)C2O)C(C)(OC)CC(C)C(=O)C(C)C2N(C3CN(S(=O)(=O)c4ccc(S(C)(=O)=O)cc4)C3)C(=O)OC12C (stereo not shown) [Example 3.23, 4-(methylsulfonyl) benzenesulfonyl]
MIC H. influenzae 1218 [1]: 1 µg/mL (≈ 1.13 µM)
MIC S. pneumo. 1095 [2]: 0.25 µg/mL (≈ 0.282 µM)
MIC S. pneumo. 1175 [3]: <0.06 µg/mL
MIC S. pyogenes 1079 [4]: >64.00 µg/mL
MIC S. pneumo. 1016 [5]: <0.06 µg/mL

CCC1OC(=O)C(C)C(=O)C(C)C(OC2OC(C)CC(N(C)C)C2O)C(C)(OC)CC(C)C(=O)C(C)C2N(C3CN(S(=O)(=O)c4ccccc4S(C)(=O)=O)C3)C(=O)OC12C (stereo not shown) [Example 3.25, 2-(methylsulfonyl) benzenesulfonyl]
MIC H. influenzae 1218 [1]: 1 µg/mL (≈ 1.13 µM)
MIC S. pneumo. 1095 [2]: <0.06 µg/mL
MIC S. pneumo. 1175 [3]: 0.25 µg/mL (≈ 0.282 µM)
MIC S. pyogenes 1079 [4]: >64.00 µg/mL
MIC S. pneumo. 1016 [5]: <0.06 µg/mL

CCC1OC(=O)C(C)C(=O)C(C)C(OC2OC(C)CC(N(C)C)C2O)C(C)(OC)CC(C)C(=O)C(C)C2N(C3CN(S(=O)(=O)c4ccc(Oc5ccncc5)cc4)C3)C(=O)OC12C (stereo not shown) [Example 3.26]
MIC H. influenzae 1218 [1]: 4 µg/mL (≈ 4.44 µM)
MIC S. pneumo. 1095 [2]: <0.06 µg/mL
MIC S. pneumo. 1175 [3]: 8 µg/mL (≈ 8.88 µM)
MIC S. pyogenes 1079 [4]: 64 µg/mL (≈ 71 µM)
MIC S. pneumo. 1016 [5]: <0.06 µg/mL

CCC1OC(=O)C(C)C(=O)C(C)C(OC2OC(C)CC(N(C)C)C2O)C(C)(OC)CC(C)C(=O)C(C)C2N(C3CN(S(=O)(=O)c4ccc(Oc5cccnc5)cc4)C3)C(=O)OC12C (stereo not shown) [Example 3.27, 4-(pyridin-3-yloxy) benzenesulfonyl]
MIC H. influenzae 1218 [1]: 1 µg/mL (≈ 1.11 µM)
MIC S. pneumo. 1095 [2]: <0.06 µg/mL
MIC S. pneumo. 1175 [3]: <0.06 µg/mL
MIC S. pyogenes 1079 [4]: 32 µg/mL (≈ 35.5 µM)
MIC S. pneumo. 1016 [5]: <0.06 µg/mL

CCC1OC(=O)C(C)C(=O)C(C)C(OC2OC(C)CC(N(C)C)C2O)C(C)(OC)CC(C)C(=O)C(C)C2N(C3CN(S(=O)(=O)c4cn(C)c(C)n4)C3)C(=O)OC12C (stereo not shown) [Example 3.28]
MIC H. influenzae 1218 [1]: 1 µg/mL (≈ 1.21 µM)
MIC S. pneumo. 1095 [2]: <0.06 µg/mL
MIC S. pneumo. 1175 [3]: 4 µg/mL (≈ 4.84 µM)
MIC S. pyogenes 1079 [4]: >64.00 µg/mL
MIC S. pneumo. 1016 [5]: <0.06 µg/mL

CCC1OC(=O)C(C)C(=O)C(C)C(OC2OC(C)CC(N(C)C)C2O)C(C)(OC)CC(C)C(=O)C(C)C2N(C3CN(S(=O)(=O)c4c(C)n[nH]c4C)C3)C(=O)OC12C (stereo not shown) [Example 3.29, 3-descladinosyl-11,12-dideoxy-6-O-methyl-3-oxo-12,11-(oxycarbonyl-(1-(3,5-dimethyl-1H-pyrazole-4-sulfony)-azetidin-3-yl)-imino)-erythromycin A]
MIC H. influenzae 1218 [1]: 0.25 µg/mL (≈ 0.303 µM)
MIC S. pneumo. 1095 [2]: <0.06 µg/mL
MIC S. pneumo. 1175 [3]: 0.5 µg/mL (≈ 0.605 µM)
MIC S. pyogenes 1079 [4]: 8 µg/mL (≈ 9.68 µM)
MIC S. pneumo. 1016 [5]: <0.06 µg/mL

CCC1OC(=O)C(C)C(=O)C(C)C(OC2OC(C)CC(N(C)C)C2O)C(C)(OC)CC(C)C(=O)C(C)C2N(C3CN(S(=O)(=O)c4c[nH]c(=O)[nH]c4=O)C3)C(=O)OC12C (stereo not shown) [Example 3.30, 1,2,3,4-tetrahydro-2,4-dioxopyrimidine-5-sulfonyl]
MIC H. influenzae 1218 [1]: 32 µg/mL (≈ 38 µM)
MIC S. pneumo. 1095 [2]: >64.00 µg/mL
MIC S. pneumo. 1175 [3]: 32 µg/mL (≈ 38 µM)
MIC S. pyogenes 1079 [4]: >64.00 µg/mL
MIC S. pneumo. 1016 [5]: 1 µg/mL (≈ 1.19 µM)

CCC1OC(=O)C(C)C(=O)C(C)C(OC2OC(C)CC(N(C)C)C2O)C(C)(OC)CC(C)C(=O)C(C)C2N(C3CN(S(=O)(=O)c4ccc(OC)cc4OC)C3)C(=O)OC12C (stereo not shown) [Example 3.31, 3-descladinosyl-11,12-dideoxy-6-O-methyl-3-oxo-12,11-(1-(oxycarbonyl-(2,4-dimethoxybenzenesulfonyl)-azetidin-3-yl)-imino)-erythromycin A]
MIC H. influenzae 1218 [1]: 0.5 µg/mL (≈ 0.576 µM)
MIC S. pneumo. 1095 [2]: 2 µg/mL (≈ 2.3 µM)
MIC S. pneumo. 1175 [3]: 0.12 µg/mL (≈ 0.138 µM)
MIC S. pyogenes 1079 [4]: 4 µg/mL (≈ 4.61 µM)
MIC S. pneumo. 1016 [5]: <0.06 µg/mL

CCC1OC(=O)C(C)C(=O)C(C)C(OC2OC(C)CC(N(C)C)C2O)C(C)(OC)CC(C)C(=O)C(C)C2N(C3CN(S(=O)(=O)c4c(C)noc4C)C3)C(=O)OC12C (stereo not shown) [Example 3.32, 3,5-dimethylisoxazole-4-sulfonyl]
MIC H. influenzae 1218 [1]: 2 µg/mL (≈ 2.42 µM)
MIC S. pneumo. 1095 [2]: 0.5 µg/mL (≈ 0.605 µM)
MIC S. pneumo. 1175 [3]: 0.12 µg/mL (≈ 0.145 µM)
MIC S. pyogenes 1079 [4]: 32 µg/mL (≈ 38.7 µM)
MIC S. pneumo. 1016 [5]: <0.06 µg/mL

CCC1OC(=O)C(C)C(=O)C(C)C(OC2OC(C)CC(N(C)C)C2O)C(C)(OC)CC(C)C(=O)C(C)C2N(C3CN(S(=O)(=O)c4ccc(-c5ccon5)s4)C3)C(=O)OC12C (stereo not shown) [Example 3.33, 3-descladinosyl-11,12-dideoxy-6-O-methyl-3-oxo-12,11-(1-(oxycarbonyl-(5-(isoxazol-3-yl)thiophene-2-sulfonyl)-azetidin-3-yl)-imino)-erythromycin A]
MIC H. influenzae 1218 [1]: 0.5 µg/mL (≈ 0.567 µM)
MIC S. pneumo. 1095 [2]: <0.06 µg/mL
MIC S. pneumo. 1175 [3]: <0.06 µg/mL
MIC S. pyogenes 1079 [4]: 8 µg/mL (≈ 9.08 µM)
MIC S. pneumo. 1016 [5]: <0.06 µg/mL

CCC1OC(=O)C(C)C(=O)C(C)C(OC2OC(C)CC(N(C)C)C2O)C(C)(OC)CC(C)C(=O)C(C)C2N(C3CN(S(=O)(=O)c4ccc(Oc5ccccn5)cc4)C3)C(=O)OC12C (stereo not shown) [Example 3.34, 4-(pyridin-2-yloxy)benzenesulfonyl]
MIC H. influenzae 1218 [1]: 16 µg/mL (≈ 17.8 µM)
MIC S. pneumo. 1095 [2]: 1 µg/mL (≈ 1.11 µM)
MIC S. pneumo. 1175 [3]: 0.12 µg/mL (≈ 0.133 µM)
MIC S. pyogenes 1079 [4]: 64 µg/mL (≈ 71 µM)
MIC S. pneumo. 1016 [5]: <0.06 µg/mL

CCC1OC(=O)C(C)C(=O)C(C)C(OC2OC(C)CC(N(C)C)C2O)C(C)(OC)CC(C)C(=O)C(C)C2N(C3CN(S(=O)(=O)c4cccc(-c5cnco5)c4)C3)C(=O)OC12C (stereo not shown) [Example 3.35, 3-descladinosyl-11,12-dideoxy-6-O-methyl-3-oxo-12,11-(oxycarbonyl-(1-(3-(oxazol-5-yl)benzenesulfonyl)-azetidin-3-yl)-imino)-erythromycin A]
MIC H. influenzae 1218 [1]: 0.12 µg/mL (≈ 0.137 µM)
MIC S. pneumo. 1095 [2]: <0.06 µg/mL
MIC S. pneumo. 1175 [3]: <0.06 µg/mL
MIC S. pyogenes 1079 [4]: 1 µg/mL (≈ 1.14 µM)
MIC S. pneumo. 1016 [5]: <0.06 µg/mL

CCC1OC(=O)C(C)C(=O)C(C)C(OC2OC(C)CC(N(C)C)C2O)C(C)(OC)CC(C)C(=O)C(C)C2N(C3CN(S(=O)(=O)c4cccc(-c5cc[nH]n5)c4)C3)C(=O)OC12C (stereo not shown) [Example 3.36, 3-descladinosyl-11,12-dideoxy-6-O-methyl-3-oxo-12,11-(oxycarbonyl-(1-(3-(1H-pyrazol-3-yl)benzenesulfonyl)-azetidin-3-yl)-imino)-erythromycin A]
MIC H. influenzae 1218 [1]: 0.25 µg/mL (≈ 0.286 µM)
MIC S. pneumo. 1095 [2]: <0.06 µg/mL
MIC S. pneumo. 1175 [3]: <0.06 µg/mL
MIC S. pyogenes 1079 [4]: 1 µg/mL (≈ 1.14 µM)
MIC S. pneumo. 1016 [5]: <0.06 µg/mL

CCC1OC(=O)C(C)C(=O)C(C)C(OC2OC(C)CC(N(C)C)C2O)C(C)(OC)CC(C)C(=O)C(C)C2N(C3CN(S(=O)(=O)c4cccnc4OC)C3)C(=O)OC12C (stereo not shown) [Example 3.37, 2-methoxypyridine-3-sulfonyl]
MIC H. influenzae 1218 [1]: 0.5 µg/mL (≈ 0.596 µM)
MIC S. pneumo. 1095 [2]: 4 µg/mL (≈ 4.77 µM)
MIC S. pneumo. 1175 [3]: <0.06 µg/mL
MIC S. pyogenes 1079 [4]: 16 µg/mL (≈ 19.1 µM)
MIC S. pneumo. 1016 [5]: <0.06 µg/mL

CCC1OC(=O)C(C)C(=O)C(C)C(OC2OC(C)CC(N(C)C)C2O)C(C)(OC)CC(C)C(=O)C(C)C2N(C3CN(S(=O)(=O)c4ccc(OC)nc4)C3)C(=O)OC12C (stereo not shown) [Example 3.38, 6-methoxypyridine-3-sulfonyl]
MIC H. influenzae 1218 [1]: 0.5 µg/mL (≈ 0.596 µM)
MIC S. pneumo. 1095 [2]: 1 µg/mL (≈ 1.19 µM)
MIC S. pneumo. 1175 [3]: <0.06 µg/mL
MIC S. pyogenes 1079 [4]: 64 µg/mL (≈ 76.3 µM)
MIC S. pneumo. 1016 [5]: <0.06 µg/mL

CCC1OC(=O)C(C)C(=O)C(C)C(OC2OC(C)CC(N(C)C)C2O)C(C)(OC)CC(C)C(=O)C(C)C2N(C3CN(S(=O)(=O)c4ccc(-c5ccn[nH]5)cc4)C3)C(=O)OC12C (stereo not shown) [Example 3.39, 3-descladinosyl-11,12-dideoxy-6-O-methyl-3-oxo-12,11-(oxycarbonyl-(1-(4-(1H-pyrazol-5-yl)benzenesulfonyl)-azetidin-3-yl)-imino)-erythromycin A]
MIC H. influenzae 1218 [1]: 0.5 µg/mL (≈ 0.572 µM)
MIC S. pneumo. 1095 [2]: <0.06 µg/mL
MIC S. pneumo. 1175 [3]: <0.06 µg/mL
MIC S. pyogenes 1079 [4]: 0.25 µg/mL (≈ 0.286 µM)
MIC S. pneumo. 1016 [5]: <0.06 µg/mL
